# According to patent US11999728B2, “Estrogen receptor modulators” (Recurium IP Holdings, LLC, priority 2020, dated 2024):
# System: MCF7
# Test: Breast Cancer Cell Proliferation Assay (MCF-7), Cell Titer-Glo
# Type: cell-based
# Conditions: Homo sapiens, 120 h, MCF7 cells, 5 days of compound exposure
# Method: Breast Cancer Cell Proliferation Assay (MCF-7)
# MCF7 was expanded and maintained in the medium (Phenol red free DMEM/F12 (Hyclone SH30272.01) NEAA (Gibco11140-050) Na-pyruvate (Gibco 11360-070) and Re-stripped Charcoal stripped FBS (Gemini 100-119)). The cells were adjusted to a concentration of 3,000 cells per mL in the above media, and the cells were incubated (37° C., 5% CO2). The following day a 10-point, serial dilution of compounds was added to the cells at a final concentration ranging from 10-0.000005 μM for test compounds (17β-estradiol was used as a control). Additional cells were plated in 30 wells to serve as the day 1 (pretreatment) comparison. After 5 days of compound exposure, Cell Titer-Glo reagent was added to the cells and the relative luminescence units (RLUs) of each well was determined. Cell Titer-Glo was also added to 32 μL of medium without cells to obtain a background value. The plates were allowed to incubate at room temperature for 10 minutes to stabilize luminescent signal and the luminescence signal was recorded with EnSpire. The relative increase in cell number of each sample is determined as follows: (RLU sample-RLU background/RLU estrogen only treated cells-RLU background)×100=% inhibition.
row,SMILES,IC50 [µM]
1,"C[C@@H]1Cc2c([nH]c3ccccc23)[C@@H](c2ccc(NC3CN(CCC#N)C3)cn2)N1C12CC(C1)C2 [Compound 4, 3-(3-((6-((1S,3R)-2-(bicyclo[1.1.1]pentan-1-yl)-3-methyl-2,3,4,9-tetrahydro-1H-pyrido[3,4-b]indol-1-yl)pyridin-3-yl)amino)azetidin-1-yl)propanenitrile]",0.025 to 0.25

# Same assay, conditions: Homo sapiens, MCF7, 120 h, MCF7 cells, 5 days of compound exposure
row,IC50 [µM],SMILES
1,≤ 0.025,"CCCNCC1CCN(c2ccc([C@@H]3c4[nH]c5ccccc5c4C[C@@H](C)N3C34CC(C3)C4)cc2)CC1 [Compound 93, N-((1-(4-((1R,3R)-2-(bicyclo[1.1.1]pentan-1-yl)-3-methyl-2,3,4,9-tetrahydro-1H-pyrido[3,4-b]indol-1-yl)phenyl)piperidin-4-yl)methyl)propan-1-amine]"
2,≥ 0.25,"C[C@@H]1Cc2c([nH]c3ccccc23)[C@@H](c2ncc(NC3CN(CCCF)C3)cn2)N1C12CC(C1)C2 [Compound 60, 2-((1S,3R)-2-(bicyclo[1.1.1]pentan-1-yl)-3-methyl-2,3,4,9-tetrahydro-1H-pyrido[3,4-b]indol-1-yl)-N-(1-(3-fluoropropyl)azetidin-3-yl)pyrimidin-5-amine]"
3,≥ 0.25,"C[C@@H]1Cc2c([nH]c3ccccc23)[C@@H](c2cnc(NC3CN(CCCF)C3)c(F)c2)N1C12CC(C1)C2 [Compound 41, 5-((1R,3R)-2-(bicyclo[1.1.1]pentan-1-yl)-3-methyl-2,3,4,9-tetrahydro-1H-pyrido[3,4-b]indol-1-yl)-3-fluoro-N-(1-(3-fluoropropyl)azetidin-3-yl)pyridin-2-amine]"
4,≥ 0.25,"CCCN1CC(Nc2ccc([C@@H]3c4[nH]c5ccccc5c4C[C@@H](C)N3C34CC(C3)C4)cn2)C1 [Compound 30, 5-((1R,3R)-2-(bicyclo[1.1.1]pentan-1-yl)-3-methyl-2,3,4,9-tetrahydro-1H-pyrido[3,4-b]indol-1-yl)-N-(1-propylazetidin-3-yl)pyridin-2-amine]"
5,≤ 0.025,"C[C@@H]1Cc2c([nH]c3ccccc23)[C@@H](c2ccc(OCCN3CC(CF)C3)cc2)N1C12CC(C1)C2 [Compound 24, (1R,3R)-2-(bicyclo[1.1.1]pentan-1-yl)-1-(4-(2-(3-(fluoromethyl)azetidin-1-yl)ethoxy)phenyl)-3-methyl-2,3,4,9-tetrahydro-1H-pyrido[3,4-b]indole]"
6,≥ 0.25,"C[C@@H]1Cc2c([nH]c3ccccc23)[C@@H](c2c(F)cc(O[C@H]3CCN(CCCF)C3)cc2F)N1C12CC(C#N)(C1)C2 (single isomer, unassigned) [Compound 36]"
7,≤ 0.025,"C[C@H]1Cc2c([nH]c3ccccc23)[C@H](c2c(F)cc(N[C@H]3CCN(CCCF)C3)cc2F)N1C12CC(CO)(C1)C2 (single isomer, unassigned) [Compound 71]"
8,≤ 0.025,"C[C@H]1Cc2c([nH]c3ccccc23)[C@H](c2ccc(NC3CN(CCCF)C3)cc2)N1C12CC(CF)(C1)C2 (single isomer, unassigned) [Compound 63]"
9,≤ 0.025,"C[C@@H]1Cc2c([nH]c3ccccc23)[C@@H](c2ncc(OC3CN(CCCF)C3)cc2F)N1C12CC(C1)C2 [Compound 14, (1S,3R)-2-(bicyclo[1.1.1]pentan-1-yl)-1-(3-fluoro-5-((1-(3-fluoropropyl)azetidin-3-yl)oxy)pyridin-2-yl)-3-methyl-2,3,4,9-tetrahydro-1H-pyrido[3,4-b]indole]"
10,≥ 0.25,"C[C@@H]1Cc2c([nH]c3ccccc23)[C@@H](c2ccc(OC3CN(CCO)C3)cc2)N1C12CC(C1)C2 [Compound 46, 2-(3-(4-((1R,3R)-2-(bicyclo[1.1.1]pentan-1-yl)-3-methyl-2,3,4,9-tetrahydro-1H-pyrido[3,4-b]indol-1-yl)phenoxy)azetidin-1-yl)ethan-1-ol]"
11,0.025 to 0.25,"C[C@@H]1Cc2c([nH]c3ccccc23)[C@@H](c2ccc(O[C@@H]3CCN(CCCF)C3)cc2)N1C12CC(C1)C2 (single isomer, unassigned) [Compound 7]"
12,≥ 0.25,"C[C@@H]1Cc2c([nH]c3ccccc23)[C@@H](c2ccc(NCCN3CCC(CF)C3)nc2)N1C12CC(C1)C2 (stereo partly drawn) [Compound 29, 5-((1R,3R)-2-(bicyclo[1.1.1]pentan-1-yl)-3-methyl-2,3,4,9-tetrahydro-1H-pyrido[3,4-b]indol-1-yl)-N-(2-(3-(fluoromethyl)pyrrolidin-1-yl)ethyl)pyridin-2-amine]"
13,≥ 0.25,"C[C@@H]1Cc2c([nH]c3ccccc23)[C@@H](c2cnc(N[C@H]3CCN(CCCF)C3)cn2)N1C12CC(C1)C2 [Compound 44, 5-((1S,3R)-2-(bicyclo[1.1.1]pentan-1-yl)-3-methyl-2,3,4,9-tetrahydro-1H-pyrido[3,4-b]indol-1-yl)-N—((S)-1-(3-fluoropropyl)pyrrolidin-3-yl)pyrazin-2-amine]"
14,0.025 to 0.25,"C[C@H]1Cc2c([nH]c3ccccc23)[C@H](c2ccc(OC3CN(CCCF)C3)cc2)N1C12CC(CO)(C1)C2 (single isomer, unassigned) [Compound 51]"
15,≤ 0.025,"COc1cc(NC2CN(CCCF)C2)cc(F)c1[C@@H]1c2[nH]c3ccccc3c2C[C@@H](C)N1C12CC(C1)C2 [Compound 92, N-(4-((1R,3R)-2-(bicyclo[1.1.1]pentan-1-yl)-3-methyl-2,3,4,9-tetrahydro-1H-pyrido[3,4-b]indol-1-yl)-3-fluoro-5-methoxyphenyl)-1-(3-fluoropropyl)azetidin-3-amine]"
16,0.025 to 0.25,"C[C@@H]1Cc2c([nH]c3ccccc23)[C@@H](c2c(F)cc(NC3CN(CCCF)C3)cc2F)N1C12CC(C(N)=O)(C1)C2 (single isomer, unassigned) [Compound 76]"
17,≤ 0.025,"C[C@@H]1Cc2c([nH]c3ccccc23)[C@@H](c2ccc(OC3CN(C4CC4)C3)cc2)N1C12CC(C1)C2 [Compound 47, (1R,3R)-2-(bicyclo[1.1.1]pentan-1-yl)-1-(4-((1-cyclopropylazetidin-3-yl)oxy)phenyl)-3-methyl-2,3,4,9-tetrahydro-1H-pyrido[3,4-b]indole]"
18,≤ 0.025,"C[C@@H]1Cc2c([nH]c3ccccc23)[C@@H](c2c(F)cc(O[C@H]3CCN(CCCF)C3)cc2F)N1C12CC(C(N)=O)(C1)C2 (single isomer, unassigned) [Compound 35]"
19,≥ 0.25,"C[C@H]1Cc2c([nH]c3ccccc23)[C@H](c2c(F)cc(NC3CN(CCCF)C3)cc2F)N1C12CC(C(N)=O)(C1)C2 (single isomer, unassigned) [Compound 77]"
20,≤ 0.025,"C#CCN1CC(Nc2ccc([C@@H]3c4[nH]c5ccccc5c4C[C@@H](C)N3C34CC(C3)C4)nc2)C1 [Compound 48, 6-((1S,3R)-2-(bicyclo[1.1.1]pentan-1-yl)-3-methyl-2,3,4,9-tetrahydro-1H-pyrido[3,4-b]indol-1-yl)-N-(1-(prop-2-yn-1-yl)azetidin-3-yl)pyridin-3-amine]"
21,0.025 to 0.25,"CCCN1CC(Oc2ccc([C@H]3c4[nH]c5ccccc5c4C[C@H](C)N3C34CC(CO)(C3)C4)cc2)C1 (single isomer, unassigned) [Compound 53]"
22,0.025 to 0.25,"CCCN1CC(Oc2ccc([C@@H]3c4[nH]c5ccccc5c4C[C@@H](C)N3C34CC(C3)C4)cn2)C1 [Compound 43, (1R,3R)-2-(bicyclo[1.1.1]pentan-1-yl)-3-methyl-1-(6-((1-propylazetidin-3-yl)oxy)pyridin-3-yl)-2,3,4,9-tetrahydro-1H-pyrido[3,4-b]indole]"
23,≥ 0.25,"C[C@@H]1Cc2c([nH]c3ccccc23)[C@@H](c2ccc(N3CC(NCCCF)C3)cn2)N1C12CC(C1)C2 [Compound 49, 1-(6-((1S,3R)-2-(bicyclo[1.1.1]pentan-1-yl)-3-methyl-2,3,4,9-tetrahydro-1H-pyrido[3,4-b]indol-1-yl)pyridin-3-yl)-N-(3-fluoropropyl)azetidin-3-amine]"
24,0.025 to 0.25,"CCCN1C[C@@H](F)[C@@H](Nc2ccc([C@@H]3c4[nH]c5ccccc5c4C[C@@H](C)N3C34CC(C3)C4)cc2)C1 (single isomer, unassigned) [Compound 86]"
25,≤ 0.025,"C[C@@H]1Cc2c([nH]c3ccccc23)[C@@H](c2ccc(OC3CN(CCCF)C3)cc2)N1C12CC(C1)C2 [Compound 38, (1R,3R)-2-(bicyclo[1.1.1]pentan-1-yl)-1-(4-((1-(3-fluoropropyl)azetidin-3-yl)oxy)phenyl)-3-methyl-2,3,4,9-tetrahydro-1H-pyrido[3,4-b]indole]"
26,0.025 to 0.25,"CCCN1C[C@@H](Nc2ccc([C@@H]3c4[nH]c5ccccc5c4C[C@@H](C)N3C34CC(C3)C4)cc2)C[C@@H]1C [Compound 89, (3S,5S)—N-(4-((1R,3R)-2-(bicyclo[1.1.1]pentan-1-yl)-3-methyl-2,3,4,9-tetrahydro-1H-pyrido[3,4-b]indol-1-yl)phenyl)-5-methyl-1-propylpyrrolidin-3-amine]"
27,≤ 0.025,"C[C@@H]1Cc2c([nH]c3ccccc23)[C@@H](c2ccc(OC3CN(CCCF)C3)cc2)N1C12CC(CO)(C1)C2 (single isomer, unassigned) [Compound 50]"
28,≤ 0.025,"C[C@@H]1Cc2c([nH]c3ccccc23)[C@@H](c2c(F)cc(NC3CN(CCF)C3)cc2F)N1C12CC(C1)C2 [Compound 56, N-(4-((1R,3R)-2-(bicyclo[1.1.1]pentan-1-yl)-3-methyl-2,3,4,9-tetrahydro-1H-pyrido[3,4-b]indol-1-yl)-3,5-difluorophenyl)-1-(2-fluoroethyl)azetidin-3-amine]"
